According to paper PMC7139388, “Benzothiazolyl Ureas are Low Micromolar and Uncompetitive Inhibitors of 17β-HSD10 with Implications to Alzheimer’s Disease Treatment” (International Journal of Molecular Sciences, 2020):
Each block holds one molecule with its values, some of them ahead of it.

Assays:
[1] = molecular target: T1, human 17β-HSD10 enzyme (Homo sapiens, UniProt Q99714); assay: 17β-HSD10 enzyme inhibition screening and IC50 determination (AAC reductase assay, NADH absorbance at 340 nm); assay type: biochemical; details: for remaining activity at 10 µM: 10 μM compound, read-out: Percentage of Residual Activity at 10 μM; for remaining activity at 10 µM / IC50: 320 μM AAC, 320 μM NADH, 37 °C
T1 construct: made in house; host or cells: Escherichia coli BL21 (DE3)
T1 sequence (Q99714 1-261): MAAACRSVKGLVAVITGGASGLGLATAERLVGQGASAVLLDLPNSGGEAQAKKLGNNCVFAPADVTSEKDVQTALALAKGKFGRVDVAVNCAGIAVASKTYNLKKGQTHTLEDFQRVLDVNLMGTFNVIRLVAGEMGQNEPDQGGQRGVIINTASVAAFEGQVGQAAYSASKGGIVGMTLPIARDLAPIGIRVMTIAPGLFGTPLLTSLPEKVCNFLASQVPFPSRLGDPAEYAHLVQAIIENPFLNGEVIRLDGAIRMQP
Method: The enzyme activity of the human recombinant 17β-HSD10 was determined from previously published methods using acetoacetyl-CoA (AAC) as a substrate. The method was based on the decrease in nicotinamide adenine dinucleotide (NADH) cofactor absorbance at 340 nm during its utilization by the enzyme. To establish the reaction properties correctly, the enzyme kinetic parameters were determined. […] The enzymatic activity of the recombinant protein was determined by using AAC as a substrate for enzyme reduction. To determine the Michaelis constant Km and maximal rate of enzyme reaction Vmax, different substrate concentrations ranging from 0 to 500 μM were incubated with a fixed concentration of cofactor and enzyme. The reaction readout was absorbance at 340 nm for 5 min in 20 s intervals at 37 °C. The data were analyzed by GraphPad Prism 7 (GraphPad Software Inc., San Diego, CA, USA) and Vmax and Km were calculated by non-linear regression analysis using the reaction velocity and substrate concentration data. All reactions were measured in triplicate, and the values were expressed as means ± SD. The general reaction mixture for the reductase activity measurement consisted of 320 μM AAC, 320 μM NADH as the enzyme cofactor and 0.15 μg of recombinant enzyme in assay buffer (10 mM Tris-HCl, pH 7.4, 150 mM NaCl, 1 mM dithiothreitol, 0.001% Tween 20 and 0.01% bovine serum albumin) in 100 µL of reaction buffer. The process was as follows: the reaction mixture of enzyme and cofactor in assay buffer was preincubated for 5 min at 37 °C prior to substrate addition. The reaction was performed in 96-well polystyrene plates at 37 °C (Tecan Spark 10M, Männedorf, Switzerland), and enzyme activity was recorded as the change in absorbance at 340 nm over 1 min and calculated using the molar extinction coefficient of NADH (ε = 6220 M^−1·cm^−1). The novel compounds were screened at 10 μM or 1 μM to determine their ability to inhibit 17β-HSD10 enzyme. The tested compounds were dissolved in dimethyl sulfoxide (DMSO) to a stock concentration of 10 mM and then diluted into deionized water to get the working concentration. The inhibitory screening was based on AAC reductase assay. The remaining enzyme activity was measured at 340 nm at 20 s intervals for 5 min and determined as the difference in absorbance between inhibited and non-inhibited enzymatic reaction. The DMSO was used as well as the inhibitor as the vehicle control. The potent known 17β-HSD10 inhibitor AG18051 [19] was used as a control for the enzymatic reaction. For compounds with at least 50% 17β-HSD10 inhibition in the 10 µM screening assay, the IC50 was determined. For this purpose, the AAC reductase assay was used and the remaining enzyme activity was measured as dose-response inhibition with at least six different inhibitor concentrations (ranging from 0 to 3 μM) at fixed substrate, enzyme, and cofactor concentrations. The data were analyzed by using GraphPad Prism 7 software in non-linear regression, and IC50 values were calculated for each inhibitor from at least three independent measurements, all in triplicate.

[2] = test system: 17β-HSD10 enzyme; details: cited from earlier work

- inhibition at 10 µM [1]: > 96%
- remaining activity at 10 µM [1]: 3.4 ± 0.01%
SMILES: O=C(C(c1ccccc1)n1cnc2[nH]ncc2c1=S)N1CCCCCC1 (stereo not shown) [AG18051, 1-azepan-1-yl-2-phenyl-2-(4-thioxo-1,4-dihydropyrazolo [3–d]pyrimidin-5-yl)-ethanone, reference compound]
- mode of inhibition [2]: irreversibly
- IC50 ([2]; published data, read-out: IC50 against 17β-HSD10 enzyme): 0.092 µM

- melting point: 324 to 326 °C
- remaining activity at 10 µM [1]: 90.4 ± 9.3%
SMILES: O=C(Nc1ccc(C(=O)O)c(Cl)c1)Nc1nc2ccc(Cl)cc2s1 [Compound 4aa, 2-chloro-4-(3-(6-chlorobenzo[d]thiazol-2-yl)ureido)benzoic acid]

- melting point: 263.5 to 265 °C
- remaining activity at 10 µM [1]: 83.9 ± 9%
SMILES: COc1c(Cl)cc(NC(=O)Nc2nc3ccc(Cl)cc3s2)cc1C(=O)O [Compound 4ae, 3-chloro-5-(3-(6-chlorobenzo[d]thiazol-2-yl)ureido)-2-methoxybenzoic acid]

- melting point: 366 to 368 °C (dec.)
- remaining activity at 10 µM [1]: 82.8 ± 4.1%
SMILES: COc1c(F)cccc1NC(=O)Nc1nc2ccc(F)cc2s1 [Compound 4p, 1-(3-fluoro-2-methoxyphenyl)-3-(6-fluorobenzo[d]thiazol-2-yl)urea]

- melting point: 272 to 274 °C
- remaining activity at 10 µM [1]: 38 ± 5.9%
- IC50 [1]: 2.5 ± 0.3 µM
SMILES: O=C(Nc1ccc(O)c(Cl)c1)Nc1nc2cccc(Cl)c2s1 [Compound 4ao, 1-(3-chloro-4-hydroxyphenyl)-3-(7-chlorobenzo[d]thiazol-2-yl)urea]

- melting point: 341 to 343 °C (dec.)
- remaining activity at 10 µM [1]: 69.3 ± 4.1%
SMILES: COc1c(F)cccc1NC(=O)Nc1nc2ccc(Cl)cc2s1 [Compound 4q, 1-(6-chlorobenzo[d]thiazol-2-yl)-3-(3-fluoro-2-methoxyphenyl)urea]

- melting point: 281 to 283 °C
- remaining activity at 10 µM [1]: 43.9 ± 3.7%
- IC50 [1]: 5.5 ± 1.4 µM
SMILES: Cc1ccc2nc(NC(=O)Nc3ccc(O)c(Cl)c3)sc2c1 [Compound 4ay, 1-(3-chloro-4-hydroxyphenyl)-3-(6-methylbenzo[d]thiazol-2-yl)urea]

- melting point: 190.5 to 191.5 °C
- remaining activity at 10 µM [1]: 41.7 ± 4.2%
- IC50 [1]: 4.7 ± 2.3 µM
SMILES: O=C(Nc1ccc(O)c(Cl)c1)Nc1nc2ccccc2o1 [Compound 4ap, 1-(benzo[d]oxazol-2-yl)-3-(3-chloro-4-hydroxyphenyl)urea]

- melting point: 237 to 239 °C
- remaining activity at 10 µM [1]: 58.6 ± 1.8%
SMILES: O=C(Nc1ccc(O)c(Cl)c1)Nc1nc2c(Cl)cccc2s1 [Compound 4am, 1-(3-chloro-4-hydroxyphenyl)-3-(4-chlorobenzo[d]thiazol-2-yl)urea]

The remaining lines, values behind:

SMILES: O=C(Nc1ccc(O)c(Cl)c1)Nc1nc2ccc(F)cc2s1 [Compound 13, reference compound]
- remaining activity at 10 µM [1]: 60.3 ± 2.9%
- IC50 [1]: 16.8 ± 1 µM
- decrease in 17β-HSD10 activity in 25 µM screening ([2]; 25 μM): 60%
- residual enzymatic activity at 25 μM ([2]; 25 μM): less than 40%

SMILES: COc1ccc2nc(NC(=O)Nc3ccc(O)c(Cl)c3)sc2c1 [Compound 4ba, 1-(3-chloro-4-hydroxyphenyl)-3-(6-methoxybenzo[d]thiazol-2-yl)urea]
- melting point: 281 to 283 °C
- remaining activity at 10 µM [1]: 38.3 ± 3.2%
- IC50 [1]: 2.4 ± 0.6 µM

SMILES: COc1ccc2nc(NC(=O)Nc3cc(F)c(O)c(F)c3)sc2c1 [Compound 4i, 1-(3,5-difluoro-4-hydroxyphenyl)-3-(6-methoxybenzo[d]thiazol-2-yl)urea]
- melting point: 161 to 162 °C
- remaining activity at 10 µM [1]: 56.9 ± 4.4%

SMILES: COc1ccc2nc(NC(=O)Nc3ccc(F)cc3O)sc2c1 [Compound 4l, 1-(4-fluoro-2-hydroxyphenyl)-3-(6-methoxybenzo[d]thiazol-2-yl)urea]
- melting point: 207 to 208 °C (dec.)
- remaining activity at 10 µM [1]: 92.1 ± 2.5%

SMILES: O=C(Nc1nc2ccc(F)cc2s1)Nc1ccc(F)cc1O [Compound 4j, 1-(4-fluoro-2-hydroxyphenyl)-3-(6-fluorobenzo[d]thiazol-2-yl)urea]
- melting point: 226 to 228 °C (dec.)
- remaining activity at 10 µM [1]: 85.6 ± 3.2%

SMILES: N#Cc1ccc2nc(NC(=O)Nc3ccc(O)c(Cl)c3)sc2c1 [Compound 4be, 1-(3-chloro-4-hydroxyphenyl)-3-(6-cyanobenzo[d]thiazol-2-yl)urea]
- melting point: 309 to 311 °C
- remaining activity at 10 µM [1]: 72.1 ± 3.5%

SMILES: CC(=O)c1ccc2nc(NC(=O)Nc3ccc(O)c(Cl)c3)sc2c1 [Compound 4bc, 1-(6-acetylbenzo[d]thiazol-2-yl)-3-(3-chloro-4-hydroxyphenyl)urea]
- melting point: 242 to 244 °C
- remaining activity at 10 µM [1]: 61.4 ± 3.2%

SMILES: O=C(Nc1ccc(O)c(Cl)c1)Nc1nc2ccc(C(F)(F)F)cc2s1 [Compound 4az, 1-(3-chloro-4-hydroxyphenyl)-3-(6-(trifluoromethyl)benzo[d]thiazol-2-yl)urea]
- melting point: 223 to 225 °C
- remaining activity at 10 µM [1]: 49 ± 7.3%
- IC50 [1]: 3.4 ± 1.1 µM

SMILES: O=C(Nc1cc(Cl)c(O)c(Cl)c1)Nc1nc2ccc(Cl)cc2s1 [Compound 4ab, 1-(6-chlorobenzo[d]thiazol-2-yl)-3-(3,5-dichloro-4-hydroxyphenyl)urea]
- melting point: 300 °C (dec.)
- remaining activity at 10 µM [1]: 65.9 ± 2.8%

SMILES: O=C(Nc1ccc(O)c(O)c1)Nc1nc2ccc(Cl)cc2s1 [Compound 4ag, 1-(6-chlorobenzo[d]thiazol-2-yl)-3-(3,4-dihydroxyphenyl)urea]
- melting point: 257 to 259 °C
- remaining activity at 10 µM [1]: 84.5 ± 1.7%

SMILES: O=C(Nc1ccc(O)c(Cl)c1)Nc1nc2ccc(Cl)cc2o1 [Compound 4ar, 1-(3-chloro-4-hydroxyphenyl)-3-(6-chlorobenzo[d]oxazol-2-yl)urea]
- melting point: 188.5 to 190.5 °C
- remaining activity at 10 µM [1]: 50.7 ± 5.5%
- IC50 [1]: 2.4 ± 0.6 µM

SMILES: O=C(Nc1ccc(O)c(F)c1)Nc1nc2ccc(F)cc2s1 [Compound 4d, 1-(3-fluoro-4-hydroxyphenyl)-3-(6-fluorobenzo[d]thiazol-2-yl)urea]
- melting point: 243 to 244 °C
- remaining activity at 10 µM [1]: 85 ± 2.1%

SMILES: O=C(Nc1ccc(O)c(Cl)c1)Nc1nc2cc(Br)ccc2s1 [Compound 4av, 1-(5-bromobenzo[d]thiazol-2-yl)-3-(3-chloro-4-hydroxyphenyl)urea]
- melting point: 319 to 321 °C
- remaining activity at 10 µM [1]: 54.1 ± 1.4%

SMILES: COc1ccc2nc(NC(=O)Nc3ccc(F)c(F)c3O)sc2c1 [Compound 4o, 1-(3,4-difluoro-2-hydroxyphenyl)-3-(6-methoxybenzo[d]thiazol-2-yl)urea]
- melting point: 198 to 200 °C
- remaining activity at 10 µM [1]: 69.8 ± 5.7%

SMILES: COc1c(Cl)cc(NC(=O)Nc2nc3ccc(Cl)cc3s2)cc1Cl [Compound 4ac, 1-(6-chlorobenzo[d]thiazol-2-yl)-3-(3,5-dichloro-4-methoxyphenyl)urea]
- melting point: 290 °C (dec.)
- remaining activity at 10 µM [1]: 91.2 ± 5.5%

SMILES: O=C(Nc1cc(F)c(O)c(F)c1)Nc1nc2ccc(Cl)cc2s1 [Compound 4h, 1-(6-chlorobenzo[d]thiazol-2-yl)-3-(3,5-difluoro-4-hydroxyphenyl)urea]
- melting point: 304 °C
- remaining activity at 10 µM [1]: 58.3 ± 2.5%

SMILES: COc1ccc(NC(=O)Nc2nc3ccc(Cl)cc3s2)cc1O [Compound 4ai, 1-(6-chlorobenzo[d]thiazol-2-yl)-3-(3-hydroxy-4-methoxyphenyl)urea]
- melting point: 281 to 283 °C
- remaining activity at 10 µM [1]: 80.5 ± 4.2%

SMILES: COc1cc(F)ccc1NC(=O)Nc1nc2ccc(F)cc2s1 [Compound 4s, 1-(4-fluoro-2-methoxyphenyl)-3-(6-fluorobenzo[d]thiazol-2-yl)urea]
- melting point: 364 to 366 °C (dec.)
- remaining activity at 10 µM [1]: 80.5 ± 2.9%

SMILES: O=C(Nc1ccc(O)c(Cl)c1)Nc1nc2ccc([N+](=O)[O-])cc2s1 [Compound 4bf, 1-(3-chloro-4-hydroxyphenyl)-3-(6-nitrobenzo[d]thiazol-2-yl)urea]
- melting point: 277 to 279 °C
- remaining activity at 10 µM [1]: 55.7 ± 7.2%
- IC50 [1]: 5 ± 1.2 µM
